Experimental findings from US20240254531A1, “Enhancing Coupled Catalytic Activity of Multi-Enzyme Cascades With Liquid-Liquid Phase Separation Using Peptide-Based Condensates” (The Government of the United States of America, as …, priority 2023, published 2024) are described below.

Series [1] concerns three enzyme cascade (AspB, LysC, Asd). The series is described as follows: three-enzyme cascade reaction, rate of NADP+ formation with added peptide. The conditions noted are these: addition of peptide vs no BP, FIG. 6A. The format is biochemical, Bacillus subtilis (AspB); E. coli (LysC. An excerpt: A three-enzyme cascade was used for these examples. The first enzyme in the cascade is Bacillus subtilis aspartate ammonia lyase (AspB), which catalyzes the conversion of fumaric acid to aspartic acid. The AspB gene utilized here encodes a 54.5 kDa monomer which assembles into a final active tetramer. The second enzyme is E. coli aspartokinase III (LysC) which phosphorylates aspartic acid in the second step using adenosine triphosphate (ATP) as the phosphate donor. The LysC gene encodes a 49.9 kDa monomer, which assembles into an active ˜100 kDa homodimer. The third enzyme in the cascade, E. coli aspartate-ß-semialdehyde dehydrogenase (Asd), catalyzes conversion of aspartyl phosphate to aspartate semialdehyde using nicotinamide adenine dinucleotide phosphate (NADPH) as the reducing co-factor. The Asd gene encodes a 41.4 kDa monomer which assembles into the active homodimer.
FIG. 2 provides data for free enzymes (not bound to QD) in the presence of different blocking peptides described in Table 1. […]
Also assayed were two peptides comprising primarily histidine, termed His9 and His12, with their sequences provided below in Table 3. […] FIG. 6C is a fluorescence microscopy image of the same subject of FIG. 6B showing that Alexa594 labeled enzymes are colocalized to the coacervate interior.

For another series, the system named is other enzymes. Briefly: enhancement of activity of other enzymes by peptide. The format is biochemical. The conditions noted are these: as detailed in the Appendix of Provisional Patent Application No. 63/482,369.
Series [2] can be described thus: brightfield microscopy of peptide coacervate formation. The series is classed as physicochemical. The conditions noted are these: brightfield microscopy image, FIG. 6B. An excerpt:
FIGS. 6A-6C show data for enhancement with His9 and His12 peptides and fluorescence micrograph images denoting coacervate formation and localization of enzymes within the coacervates. In FIG. 6A one can see the normalized initial rate of NADP+ formation of the three enzyme cascade with no BP or with addition of the His9 and His12 peptides. The flux through the cascade is increased with the addition of the BP. […] FIG. 6C is a fluorescence microscopy image of the same field as FIG. 6B showing that Alexa594 labeled enzymes are colocalized to the coacervate interior. Excitation was with a 562 nm laser and detection at 570-620 nm.
Also assayed were two peptides comprising primarily histidine, termed His9 and His12, with their sequences provided below in Table 3. FIGS. 6A to 6C show data relating to these peptides. […] The flux through the cascade is increased with the addition of the BP. […] FIG. 6C is a fluorescence microscopy image of the same subject of FIG. 6B showing that Alexa594 labeled enzymes are colocalized to the coacervate interior.

“[NH2]WHHHHHHHHHHHH[COOH] (H-WHHHHHHHHHHHH-OH) [His12]”: the “flux through the cascade (normalized initial rate of NADP+ formation)” value in series [1] is on record as “increased”.

Consider “[NH2]GSWHHHHHH[Amide] (H-GSWHHHHHH-NH2) [His-amine]”, for which the “activity of other enzymes” value in the series on other enzymes was “enhance activity”.

“[NH2]WHHHHHHHHH[COOH] (H-WHHHHHHHHH-OH) [His9]”: the “flux through the cascade (normalized initial rate of NADP+ formation)” value in series [1] is on record as “increased”. In series [2], the coacervate formation result is given as “form coacervates”.
